In US10927106B2, “Benzothiazole derivatives as DYRK1 inhibitors” (PHARMASUM THERAPEUTICS AS, priority 2017, dated 2021):

Tests used:
Experiment in all cases: Kinase profiling, 33P ATP filter binding assay
Assay type in all cases: biochemical
Conditions in all cases: 1 micromolar inhibitor concentration, read-out: percentage inhibition
CDK2-Cyclin A = CDK2-Cyclin A (Homo sapiens (Human), UniProt P24941)
BRSK2 = BRSK2 (Homo sapiens (Human), UniProt Q8IWQ3)
PRAK = PRAK (Homo sapiens (Human), UniProt Q8IW41)
Chain of PRAK (Q8IW41 whole entry, species assumed): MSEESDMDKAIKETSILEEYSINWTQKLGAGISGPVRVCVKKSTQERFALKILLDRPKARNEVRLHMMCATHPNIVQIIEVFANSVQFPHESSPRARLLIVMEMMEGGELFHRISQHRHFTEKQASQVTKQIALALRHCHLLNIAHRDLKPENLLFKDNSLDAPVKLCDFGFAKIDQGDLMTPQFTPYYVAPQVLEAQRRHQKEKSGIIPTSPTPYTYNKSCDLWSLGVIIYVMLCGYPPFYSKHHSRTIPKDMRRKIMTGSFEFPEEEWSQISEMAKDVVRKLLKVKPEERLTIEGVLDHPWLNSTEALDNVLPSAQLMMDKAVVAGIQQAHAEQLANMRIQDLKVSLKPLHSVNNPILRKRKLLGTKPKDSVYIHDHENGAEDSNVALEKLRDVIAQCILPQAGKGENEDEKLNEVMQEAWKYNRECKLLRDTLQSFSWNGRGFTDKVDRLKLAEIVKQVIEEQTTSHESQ

JNK2 = JNK2 (Homo sapiens (Human), UniProt P45984)
p38b MAPK = p38b MAPK (Homo sapiens (Human), UniProt Q15759)
IGF-1R = IGF-1R (Homo sapiens (Human), UniProt P08069)
ZAP70 = ZAP70 (Homo sapiens (Human), UniProt P43403)
MLK1 = MLK1 (Homo sapiens (Human), UniProt P80192)
Chain of MLK1 (P80192 whole entry, species assumed): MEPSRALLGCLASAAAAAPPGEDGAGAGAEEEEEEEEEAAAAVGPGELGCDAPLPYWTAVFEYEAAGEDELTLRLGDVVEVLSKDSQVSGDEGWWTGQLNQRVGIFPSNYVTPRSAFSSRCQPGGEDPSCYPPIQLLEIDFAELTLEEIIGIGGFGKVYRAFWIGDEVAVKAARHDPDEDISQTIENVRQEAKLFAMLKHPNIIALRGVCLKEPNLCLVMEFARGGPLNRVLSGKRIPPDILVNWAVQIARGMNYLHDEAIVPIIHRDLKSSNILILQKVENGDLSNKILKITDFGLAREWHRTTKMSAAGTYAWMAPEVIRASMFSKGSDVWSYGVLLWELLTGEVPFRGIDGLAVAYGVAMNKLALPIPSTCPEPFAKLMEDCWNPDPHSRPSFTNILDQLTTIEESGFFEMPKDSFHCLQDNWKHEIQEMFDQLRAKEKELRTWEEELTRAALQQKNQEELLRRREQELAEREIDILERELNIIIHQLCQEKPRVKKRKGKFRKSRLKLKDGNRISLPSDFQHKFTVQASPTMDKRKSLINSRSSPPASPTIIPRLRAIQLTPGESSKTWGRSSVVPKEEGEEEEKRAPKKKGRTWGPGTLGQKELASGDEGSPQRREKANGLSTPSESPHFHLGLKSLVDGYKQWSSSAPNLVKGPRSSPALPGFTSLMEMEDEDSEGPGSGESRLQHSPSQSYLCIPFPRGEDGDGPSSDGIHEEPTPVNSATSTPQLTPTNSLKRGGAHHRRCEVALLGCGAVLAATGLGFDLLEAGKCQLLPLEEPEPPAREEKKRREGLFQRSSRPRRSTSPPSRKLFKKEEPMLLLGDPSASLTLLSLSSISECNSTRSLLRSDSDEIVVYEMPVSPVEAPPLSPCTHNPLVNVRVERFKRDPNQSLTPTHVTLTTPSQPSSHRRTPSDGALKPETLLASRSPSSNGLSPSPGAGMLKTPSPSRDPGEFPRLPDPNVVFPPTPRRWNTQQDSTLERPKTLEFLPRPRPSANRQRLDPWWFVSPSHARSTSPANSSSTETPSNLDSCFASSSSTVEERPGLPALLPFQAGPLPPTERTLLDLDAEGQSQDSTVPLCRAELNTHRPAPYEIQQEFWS

ABL = ABL (Homo sapiens (Human), UniProt P00519)
RSK2 = RSK2 (Homo sapiens (Human), UniProt P51812)
ERK2 = ERK2 (Homo sapiens (Human), UniProt P28482)
SGK1 = SGK1 (Homo sapiens (Human), UniProt O00141)
TTK = TTK (Homo sapiens (Human), UniProt P33981)
OSR1 = OSR1 (Homo sapiens (Human), UniProt O95747)
EPH-B2 = EPH-B2 (Homo sapiens (Human), UniProt P29323)
Chain of EPH-B2 (P29323 19-1055, species assumed): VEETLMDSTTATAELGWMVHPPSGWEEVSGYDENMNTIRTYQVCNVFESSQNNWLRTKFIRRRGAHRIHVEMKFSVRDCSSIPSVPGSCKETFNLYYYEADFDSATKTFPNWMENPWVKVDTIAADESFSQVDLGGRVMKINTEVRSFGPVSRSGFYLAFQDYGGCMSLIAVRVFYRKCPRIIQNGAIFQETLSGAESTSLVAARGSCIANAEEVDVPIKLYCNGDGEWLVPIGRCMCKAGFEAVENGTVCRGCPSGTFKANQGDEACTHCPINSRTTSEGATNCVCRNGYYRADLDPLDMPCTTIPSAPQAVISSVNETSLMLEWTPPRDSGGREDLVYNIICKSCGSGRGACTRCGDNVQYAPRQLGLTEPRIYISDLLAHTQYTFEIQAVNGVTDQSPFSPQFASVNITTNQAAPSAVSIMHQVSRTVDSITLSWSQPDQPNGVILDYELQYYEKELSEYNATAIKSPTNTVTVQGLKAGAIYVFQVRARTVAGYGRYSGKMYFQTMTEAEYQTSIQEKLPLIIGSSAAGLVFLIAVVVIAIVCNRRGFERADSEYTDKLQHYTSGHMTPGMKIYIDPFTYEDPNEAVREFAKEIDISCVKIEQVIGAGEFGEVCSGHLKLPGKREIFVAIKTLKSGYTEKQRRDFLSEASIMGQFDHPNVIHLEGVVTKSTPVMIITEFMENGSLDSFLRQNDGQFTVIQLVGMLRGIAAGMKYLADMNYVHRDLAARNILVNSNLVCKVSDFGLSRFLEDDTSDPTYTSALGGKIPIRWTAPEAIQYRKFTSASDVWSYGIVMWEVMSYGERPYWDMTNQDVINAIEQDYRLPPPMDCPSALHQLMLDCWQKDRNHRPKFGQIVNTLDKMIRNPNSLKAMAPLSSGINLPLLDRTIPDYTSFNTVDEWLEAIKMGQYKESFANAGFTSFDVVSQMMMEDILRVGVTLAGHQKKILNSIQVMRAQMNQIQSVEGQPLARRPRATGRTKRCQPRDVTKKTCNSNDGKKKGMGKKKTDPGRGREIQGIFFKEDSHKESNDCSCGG

MAPKAP-K3 = MAPKAP-K3 (Homo sapiens (Human), UniProt Q16644)
PKA = PKA (Homo sapiens (Human), UniProt P17612)
SIK2 = SIK2 (Homo sapiens (Human), UniProt Q9H0K1)
EPH-A2 = EPH-A2 (Homo sapiens (Human), UniProt P29317)
Chain of EPH-A2 (P29317 24-976, species assumed): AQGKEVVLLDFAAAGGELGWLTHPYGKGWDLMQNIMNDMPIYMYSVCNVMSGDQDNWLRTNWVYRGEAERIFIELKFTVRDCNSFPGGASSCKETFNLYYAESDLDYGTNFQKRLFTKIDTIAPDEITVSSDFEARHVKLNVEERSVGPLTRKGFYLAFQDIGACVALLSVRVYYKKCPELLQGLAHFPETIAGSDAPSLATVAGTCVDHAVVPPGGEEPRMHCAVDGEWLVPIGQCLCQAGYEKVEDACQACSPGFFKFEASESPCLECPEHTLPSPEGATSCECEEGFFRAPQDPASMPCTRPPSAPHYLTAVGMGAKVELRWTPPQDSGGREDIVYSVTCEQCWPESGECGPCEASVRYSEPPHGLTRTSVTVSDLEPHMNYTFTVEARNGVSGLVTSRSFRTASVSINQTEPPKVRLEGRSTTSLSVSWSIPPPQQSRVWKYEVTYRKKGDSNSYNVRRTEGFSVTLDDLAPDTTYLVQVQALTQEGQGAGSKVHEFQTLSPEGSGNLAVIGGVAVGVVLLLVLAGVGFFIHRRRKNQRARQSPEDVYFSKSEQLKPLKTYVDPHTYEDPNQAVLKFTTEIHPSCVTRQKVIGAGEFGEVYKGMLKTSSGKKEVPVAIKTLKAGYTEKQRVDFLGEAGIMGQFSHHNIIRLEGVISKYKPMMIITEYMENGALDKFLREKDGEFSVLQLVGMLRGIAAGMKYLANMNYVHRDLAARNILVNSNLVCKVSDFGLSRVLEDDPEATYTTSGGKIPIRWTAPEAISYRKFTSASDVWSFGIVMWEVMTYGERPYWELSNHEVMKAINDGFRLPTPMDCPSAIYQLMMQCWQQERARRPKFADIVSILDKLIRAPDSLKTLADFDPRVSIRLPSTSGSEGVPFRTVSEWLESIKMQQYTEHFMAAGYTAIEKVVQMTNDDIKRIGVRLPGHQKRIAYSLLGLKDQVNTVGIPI

MARK3 = MARK3 (Homo sapiens (Human), UniProt P27448)
IRAK4 = IRAK4 (Homo sapiens (Human), UniProt Q9NWZ3)
IRR = IRR (Homo sapiens (Human), UniProt P14616)
LKB1 = LKB1 (Homo sapiens (Human), UniProt Q15831)
RIPK2 = RIPK2 (Homo sapiens (Human), UniProt O43353)
Chain of RIPK2 (O43353 whole entry, species assumed): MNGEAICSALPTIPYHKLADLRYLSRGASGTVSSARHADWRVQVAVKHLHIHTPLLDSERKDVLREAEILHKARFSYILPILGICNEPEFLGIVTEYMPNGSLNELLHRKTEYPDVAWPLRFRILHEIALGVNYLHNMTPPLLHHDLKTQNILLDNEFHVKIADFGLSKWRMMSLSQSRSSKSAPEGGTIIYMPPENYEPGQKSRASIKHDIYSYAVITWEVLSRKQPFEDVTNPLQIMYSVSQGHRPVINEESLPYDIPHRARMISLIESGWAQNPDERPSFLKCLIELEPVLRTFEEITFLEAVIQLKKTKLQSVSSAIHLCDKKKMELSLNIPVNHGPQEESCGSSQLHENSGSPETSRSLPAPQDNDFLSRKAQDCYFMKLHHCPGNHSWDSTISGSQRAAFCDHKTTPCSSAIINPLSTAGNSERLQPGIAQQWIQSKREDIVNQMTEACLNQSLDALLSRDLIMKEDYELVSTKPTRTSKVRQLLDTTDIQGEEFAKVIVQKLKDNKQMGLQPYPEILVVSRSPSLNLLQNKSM

MINK1 = MINK1 (Homo sapiens (Human), UniProt Q8N4C8)
MST2 = MST2 (Homo sapiens (Human), UniProt Q13188)
MKK2 = MKK2 (Homo sapiens (Human), UniProt P36507)
RSK1 = RSK1 (Homo sapiens (Human), UniProt Q15418)
ERK1 = ERK1 (Homo sapiens (Human), UniProt P27361)
EPH-B3 = EPH-B3 (Homo sapiens (Human), UniProt P54753)
CAMKKb = CAMKKb (Homo sapiens (Human), UniProt Q96RR4)
HIPK2 = HIPK2 (Homo sapiens (Human), UniProt Q9H2X6)
TrkA = TrkA (Homo sapiens (Human), UniProt P04629)
SIK3 = SIK3 (Homo sapiens (Human), UniProt Q9Y2K2)
ULK2 = ULK2 (Homo sapiens (Human), UniProt Q8IYT8)
IKKe = IKKe (Homo sapiens (Human), UniProt Q14164)
MNK1 = MNK1 (Homo sapiens (Human), UniProt Q9BUB5)
Chain of MNK1 (Q9BUB5 whole entry, species assumed): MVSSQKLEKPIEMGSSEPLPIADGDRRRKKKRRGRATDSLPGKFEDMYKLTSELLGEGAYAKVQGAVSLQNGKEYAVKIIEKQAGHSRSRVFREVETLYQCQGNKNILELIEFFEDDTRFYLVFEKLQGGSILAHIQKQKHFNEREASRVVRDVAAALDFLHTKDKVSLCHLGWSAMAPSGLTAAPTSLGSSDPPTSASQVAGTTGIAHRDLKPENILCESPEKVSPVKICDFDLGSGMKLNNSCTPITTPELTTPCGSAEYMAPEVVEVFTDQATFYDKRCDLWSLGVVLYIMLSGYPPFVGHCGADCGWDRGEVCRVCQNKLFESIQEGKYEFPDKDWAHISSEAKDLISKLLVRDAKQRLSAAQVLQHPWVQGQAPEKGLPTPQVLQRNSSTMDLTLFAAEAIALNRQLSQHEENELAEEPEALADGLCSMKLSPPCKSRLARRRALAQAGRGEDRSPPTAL

PIM3 = PIM3 (Homo sapiens (Human), UniProt Q86V86)
MARK1 = MARK1 (Homo sapiens (Human), UniProt Q9P0L2)
MKK6 = MKK6 (Homo sapiens (Human), UniProt P52564)
EPH-B1 = EPH-B1 (Homo sapiens (Human), UniProt P54762)
EIF2AK3 = EIF2AK3 (Homo sapiens (Human), UniProt Q9NZJ5)

`CS(=O)(=O)Nc1cncc(-c2nc3cc(O)ccc3s2)c1` [4-99, N-(5-(5-Hydroxybenzo[d]thiazol-2-yl)pyridin-3-yl)methanesulfonamide] showed an inhibition at 1 µM (CDK2-Cyclin A) of 6%, an inhibition at 1 µM (BRSK2) of 0% and an inhibition at 1 µM (PRAK) of 0%. It also gave an inhibition at 1 µM (JNK2) of 0%, an inhibition at 1 µM (p38b MAPK) of 0% and an inhibition at 1 µM (IGF-1R) of 0%. The inhibition at 1 µM (ZAP70) was 0%, the inhibition at 1 µM (MLK1) was 0% and the inhibition at 1 µM (ABL) was 0%. The inhibition at 1 µM (RSK2) was 0%, the inhibition at 1 µM (ERK2) was 0% and the inhibition at 1 µM (SGK1) was 7%. The inhibition at 1 µM (TTK) was 0%, the inhibition at 1 µM (OSR1) was 0% and the inhibition at 1 µM (EPH-B2) was 0%. For the same molecule, the inhibition at 1 µM (MAPKAP-K3) was 0%, the inhibition at 1 µM (PKA) was 3% and the inhibition at 1 µM (SIK2) was 0%. It also gave an inhibition at 1 µM (EPH-A2) of 0%, an inhibition at 1 µM (MARK3) of 0% and an inhibition at 1 µM (IRAK4) of 8%. For the same molecule, the inhibition at 1 µM (IRR) was 0%, the inhibition at 1 µM (LKB1) was 0% and the inhibition at 1 µM (RIPK2) was 24%. It also gave an inhibition at 1 µM (MINK1) of 0%, an inhibition at 1 µM (MST2) of 0% and an inhibition at 1 µM (MKK2) of 0%. For the same molecule, the inhibition at 1 µM (RSK1) was 0%, the inhibition at 1 µM (ERK1) was 0% and the inhibition at 1 µM (EPH-B3) was 2%. It also gave an inhibition at 1 µM (CAMKKb) of 0%, an inhibition at 1 µM (HIPK2) of 0% and an inhibition at 1 µM (TrkA) of 0%. It also gave an inhibition at 1 µM (SIK3) of 0%, an inhibition at 1 µM (ULK2) of 0% and an inhibition at 1 µM (IKKe) of 0%. The inhibition at 1 µM (MNK1) was 0%, the inhibition at 1 µM (PIM3) was 0% and the inhibition at 1 µM (MARK1) was 0%. For the same molecule, the inhibition at 1 µM (MKK6) was 0%, the inhibition at 1 µM (EPH-B1) was 0% and the inhibition at 1 µM (EIF2AK3) was 0%.
Work on `COc1ccc2sc(-c3cncc(NC(C)=O)c3)nc2c1` [4-93, N-(5-(5-Methoxybenzo[d]thiazol-2-yl)pyridin-3-yl)acetamide] yielded an inhibition at 1 µM (CDK2-Cyclin A) of 0%, an inhibition at 1 µM (BRSK2) of 0% and an inhibition at 1 µM (PRAK) of 0%. The inhibition at 1 µM (JNK2) was 0%, the inhibition at 1 µM (p38b MAPK) was 0% and the inhibition at 1 µM (IGF-1R) was 0%. It also gave an inhibition at 1 µM (ZAP70) of 0%, an inhibition at 1 µM (MLK1) of 0% and an inhibition at 1 µM (ABL) of 3%. The inhibition at 1 µM (RSK2) was 0%, the inhibition at 1 µM (ERK2) was 0% and the inhibition at 1 µM (SGK1) was 0%. The inhibition at 1 µM (TTK) was 12%, the inhibition at 1 µM (OSR1) was 0% and the inhibition at 1 µM (EPH-B2) was 0%. The inhibition at 1 µM (MAPKAP-K3) was 0%, the inhibition at 1 µM (PKA) was 12% and the inhibition at 1 µM (SIK2) was 0%. It also gave an inhibition at 1 µM (EPH-A2) of 0%, an inhibition at 1 µM (MARK3) of 1% and an inhibition at 1 µM (IRAK4) of 12%. For the same molecule, the inhibition at 1 µM (IRR) was 0%, the inhibition at 1 µM (LKB1) was 0% and the inhibition at 1 µM (RIPK2) was 0%. For the same molecule, the inhibition at 1 µM (MINK1) was 0%, the inhibition at 1 µM (MST2) was 0% and the inhibition at 1 µM (MKK2) was 25%. It also gave an inhibition at 1 µM (RSK1) of 1%, an inhibition at 1 µM (ERK1) of 0% and an inhibition at 1 µM (EPH-B3) of 0%. The inhibition at 1 µM (CAMKKb) was 0%, the inhibition at 1 µM (HIPK2) was 10% and the inhibition at 1 µM (TrkA) was 0%. The inhibition at 1 µM (SIK3) was 0%, the inhibition at 1 µM (ULK2) was 0% and the inhibition at 1 µM (IKKe) was 0%. It also gave an inhibition at 1 µM (MNK1) of 0%, an inhibition at 1 µM (PIM3) of 7% and an inhibition at 1 µM (MARK1) of 0%. It also gave an inhibition at 1 µM (MKK6) of 0%, an inhibition at 1 µM (EPH-B1) of 0% and an inhibition at 1 µM (EIF2AK3) of 0%.
